Test results reported in US20250115573A1, “PYRIDAZINE-BASED PYRIDINE DERIVATIVES AS BIOLOGICALLY ACTIVE AGENTS” (priority 2023, published 2025).
Values after ≈ are worked out from the molar mass of the structure shown. One block for each compound: values may come before it.

Assays:
[1] = DPPH antioxidant activity; conditions: DPPH method; ascorbic acid's IC50 value normalized to 100%
Procedure: The antioxidant activity was assessed by the DPPH (1,1-diphenyl-2-picryl hydrazyl) method employing ascorbic acid as a standard. A 0.1 mM solution of DPPH was freshly prepared in ethanol. Different dilutions (25, 20, 15, 10 and 5 μg/mL) of compounds 1-12 and ascorbic acid were also prepared in ethanol. The test and standard solutions were prepared by adding DPPH solution (2 mL) to the different dilutions (6 mL each) of the compounds 1-12 and ascorbic acid, respectively. The control solution was prepared by adding DPPH solution (2 mL) to ethanol (6 mL). The resultant mixtures were shaken and kept at 25° C. for half an hour. The absorbance of the test, standard, and control solutions was measured at 517 nm using a UV-Visible spectrophotometer. The experiment was performed in triplicate, and the antioxidant activity was calculated using the following equation,
wherein Ac is the absorbance of the control, and As is the absorbance of the test or standard sample. The IC50 values were obtained from the regression analysis.

human COX-2 = target: T1, human COX-2 (Homo sapiens, UniProt P35354); assay: In vitro COX-2 inhibitory activity; format: biochemical; conditions: for selectivity index: COX-2 over COX-1, selectivity index of celecoxib normalized to 100%; for COX-2 inhibitory activity in comparison to celecoxib: IC50 value of celecoxib normalized to 100%
T1 construct: purchased Cayman Chemicals 560131
T1 sequence (P35354 18-604): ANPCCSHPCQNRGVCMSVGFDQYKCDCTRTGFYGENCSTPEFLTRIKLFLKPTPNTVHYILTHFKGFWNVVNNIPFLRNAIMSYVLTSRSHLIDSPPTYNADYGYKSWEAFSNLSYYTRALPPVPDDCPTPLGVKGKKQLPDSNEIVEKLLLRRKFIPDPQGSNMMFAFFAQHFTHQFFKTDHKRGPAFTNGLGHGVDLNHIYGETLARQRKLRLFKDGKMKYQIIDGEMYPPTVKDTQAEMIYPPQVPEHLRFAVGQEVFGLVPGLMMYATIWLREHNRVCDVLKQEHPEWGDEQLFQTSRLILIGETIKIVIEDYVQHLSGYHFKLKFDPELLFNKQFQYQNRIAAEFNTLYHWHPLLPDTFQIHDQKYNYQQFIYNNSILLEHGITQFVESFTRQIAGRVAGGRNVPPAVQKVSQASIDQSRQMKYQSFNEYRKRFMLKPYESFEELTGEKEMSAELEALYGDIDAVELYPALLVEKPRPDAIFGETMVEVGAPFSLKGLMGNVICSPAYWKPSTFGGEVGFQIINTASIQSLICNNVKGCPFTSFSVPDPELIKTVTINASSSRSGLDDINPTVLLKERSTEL

[2] = test system: Enterococcus faecalis (E. faecalis, ATCC 29212); assay: Antimicrobial activity, serial plate dilution method; format: cell-based; conditions: ATCC29212, against E. faecalis, nutrient agar medium
Procedure: (§1) Antimicrobial activity was performed by the serial plate dilution method (Medicinal Chemistry Research, 2017, 26, 1481-1496; Arabian Journal of Chemistry, 2016, 9, 1523-1531) against two Gram-positive bacteria, Staphylococcus aureus (S. aureus, ATCC 25923) and Enterococcus faecalis (E. faecalis, ATCC 29212); two Gram-negative bacteria, Escherichia coli (E. coli, ATCC 25922) and Pseudomonas aeruginosa (P. aeruginosa, ATCC 27853); and two fungi, Candida albicans (C. albicans, ATCC 2091) and Aspergillus niger (A. niger, MTCC 281). Antibacterial activity was performed on nutrient agar medium, whereas Sabouraud dextrose medium was used for the antifungal activity. The compounds 1-12 were tested at 100, 75, 50, 25, and 12.5 μg/mL concentrations. The standard antibiotics, ofloxacin and ketoconazole, were tested at 50, 25, and 12.5 μg/mL concentrations. Sterile dimethyl sulfoxide (DMSO) was used as a solvent for making the desired concentrations of the compounds ofloxacin and ketoconazole. Sterile DMSO also served as a control group. The minimum inhibitory concentrations (MICs) values of the synthesized compounds, ofloxacin and ketoconazole, were determined. The minimum inhibitory concentration (MIC) has been defined as the lowest concentration of a compound that inhibits the visible growth of the microorganisms in the media.

[3] = test system: Staphylococcus aureus (S. aureus, ATCC 25923); assay: as above; format: cell-based; conditions: ATCC25923, against S. aureus, nutrient agar medium
Procedure: as §1

[4] = test system: Candida albicans (C. albicans, ATCC 2091); assay: as above; format: cell-based; conditions: ATCC2091, against C. albicans, Sabouraud dextrose medium
Procedure: as §1

[5] = test system: Aspergillus niger (A. niger, MTCC 281); assay: as above; format: cell-based; conditions: MTCC281, against A. niger, Sabouraud dextrose medium
Procedure: as §1

SMILES: COc1ccccc1-n1c(N)c(C#N)c(-c2ccc(-n3nc(-c4ccccc4)ccc3=O)cc2)c(C#N)c1=O [Compound 4, 6-Amino-1-(2-methoxyphenyl)-2-oxo-4-(4-(6-oxo-3-phenylpyridazin-1(6H)-yl)phenyl)-1,2-dihydropyridine-3,5-dicarbonitrile]
antioxidant activity in comparison to ascorbic acid [1]: 71.95%

SMILES: Cc1c(-n2c(N)c(C#N)c(-c3ccc(-n4nc(-c5ccccc5)ccc4=O)cc3)c(C#N)c2=O)c(=O)n(-c2ccccc2)n1C [Compound 8, 6-Amino-1-(1,5-dimethyl-3-oxo-2-phenyl-2,3-dihydro-1H-pyrazol-4-yl)-2-oxo-4-(4-(6-oxo-3-phenylpyridazin-1(6H)-yl)phenyl) -1,2-dihydropyridine-3,5-dicarbonitrile]
antioxidant activity in comparison to ascorbic acid [1]: 78.32%

SMILES: O=C1O[C@H]([C@@H](O)CO)C(O)=C1O [ascorbic acid, reference compound]
antioxidant activity in comparison to ascorbic acid [1]: 100%

SMILES: N#Cc1c(-c2ccc(-n3nc(-c4ccccc4)ccc3=O)cc2)c(C#N)c(=O)n(-c2ccccn2)c1N [Compound 6, 6-Amino-2-oxo-4-(4-(6-oxo-3-phenylpyridazin-1(6H) -yl)phenyl)-2H-[1,2′-bipyridine]-3,5-dicarbonitrile]
selectivity index (human COX-2): 101.61%

SMILES: N#Cc1c(-c2ccc(-n3nc(-c4ccccc4)ccc3=O)cc2)c(C#N)c(=O)n(-c2nccs2)c1N [Compound 7, 6-Amino-2-oxo-4-(4-(6-oxo-3-phenylpyridazin-1(6H) -yl)phenyl)-1-(thiazol-2-yl)-1,2-dihydro-pyridine-3,5-dicarbonitrile]
selectivity index (human COX-2): 121.73%

Further lines, with some results ahead:

selectivity index (human COX-2): 121.20% | COX-2 inhibitory activity in comparison to celecoxib (human COX-2): 105.95% | MIC [2]: 25 µg/mL (≈ 44.5 µM) | MIC [3]: 25 µg/mL (≈ 44.5 µM)
SMILES: N#Cc1c(-c2ccc(-n3nc(-c4ccccc4)ccc3=O)cc2)c(C#N)c(=O)n(-c2ccc(S(N)(=O)=O)cc2)c1N [Compound 10, 4-(6-amino-3,5-dicyano-2-oxo-4-(4-(6-oxo-3-phenylpyridazin-1(6H)-yl)phenyl)pyridin-1(2H)-yl)benzenesulfonamide]
antioxidant activity in comparison to ascorbic acid [1]: 74%

MIC [4]: 12.5 µg/mL (≈ 23.5 µM) | MIC [5]: 12.5 µg/mL (≈ 23.5 µM)
SMILES: CC(=O)N1CCN(c2ccc(OCC3COC(Cn4ccnc4)(c4ccc(Cl)cc4Cl)O3)cc2)CC1 (stereo not shown) [ketoconazole, reference compound]

MIC [2]: 25 µg/mL (≈ 69.2 µM) | MIC [3]: 25 µg/mL (≈ 69.2 µM)
SMILES: CC1COc2c(N3CCN(C)CC3)c(F)cc3c(=O)c(C(=O)O)cn1c23 (stereo not shown) [ofloxacin, reference compound]

selectivity index (human COX-2): 111.0% | COX-2 inhibitory activity in comparison to celecoxib (human COX-2): 100.89% | MIC [4]: 12.5 µg/mL (≈ 22.7 µM) | MIC [5]: 12.5 µg/mL (≈ 22.7 µM)
SMILES: N#Cc1c(-c2ccc(-n3nc(-c4ccccc4)ccc3=O)cc2)c(C#N)c(=O)n(-c2cccc(C(F)(F)F)c2)c1N [Compound 9, 6-amino-2-oxo-4-(4-(6-oxo-3-phenylpyridazin-1(6H) -yl)phenyl)-1-(3-(trifluoromethyl)phenyl)-1,2-dihydropyridine-3,5-dicarbonitrile]
antioxidant activity in comparison to ascorbic acid [1]: 70.90%
